Values quoted from earlier work, collected in patent publication US11324962B2, “Magnetic field enhancement of chemotherapy for tumor treatment” (priority 2018, dated 2022).

Settings: in vivo

O=C1[O][Pt]2([NH][C@@H]3CCCC[C@H]3[NH]2)[O]C1=O [oxaliplatin]
biological half-life: 25 minutes
